Reference: EP0305184A1, “Pyrimidines or their pharmaceutically acceptable salts thereof” (MITSUI PHARMACEUTICALS, INC., priority 1987, dated 1989)
Several values for one entry are separate records, joined by “and”; a condition that tells them apart may be missing. Equal entries are not always repeated. Where two headings read alike, the source gives them in different places.

Columns and labels:
[1] = tested on: mice with nerve disorder induced by mercury poisoning; experiment: T-shaped maze learning and memory of mice with mercury poisoning; format: in vivo, Male BalbC strain mice; settings: 102 69.5, 116 76.9 mg/kg.ip/day; for running time: mean ± SE, after MMC; for Number of mice which ran to the safety area within 5 seconds: numerator: at least 8 of ten runs within 5 seconds, denominator: mice tested, after MMC 6 mg/kg/day
Description: Male BalbC strain mice, 7 weeks old, were first caused to learn a T-shaped maze three times in a week so that they run straight from a starting point to a safety area. Then, methylmercury chloride (MMC for short) was administered orally in a dose of 6 mg/kg/day for 6 days. A group of mice to which saline was administered in a dose of 0.1 ml/10 g/day was used as a control group. Beginning with the day next to the day of administering MMC, compounds Nos. 102 and 116 were intraperitoneally administered over 10 days in a dose of 69.5 mg/kg/day and 76.9 mg/kg/day, respectively, so as to make the mole numbers of the compounds equal. On the sixth day after administration of the drug (namely, on the 12th day after start of the experiment), learning of the T-shaped maze was resumed, and the running behaviors of the mice were observed. The number of mice which could be experimented in the T-shaped maze on the 10th and 11th days after the resumption (21st and 22nd days after the start of the experiment) was counted and expressed as a denominator. The number of mice which ran to the safety area within 5 seconds at least 8 times out of ten trial runnings was counted and expressed as a numerator. The decrease in the number of the test animals was due to death by MMC poisoning. The time (seconds) required for the animals to run to the safety area was measured, and the mean ± standard error (SE) was calculated.

Acute toxicity = format: in vivo; settings: in vivo, mouse, 24 hours after administration
Description: (§1) The acute toxicity of the compounds of the invention was examined by the following method.
(§2) Male ddy-strain 5-week old mice and male Wistar-strain 8 week old rats, five per group, were used as experimental animals. Each of the compounds was dissolved in saline and administered perorally (p.o.) or intraperitoneally (i.p.), and the toxicity of the compound was assessed 24 hours after the administration.

mouse = experiment: Acute toxicity; format: in vivo; settings: p.o., 24 hours after administration
Description: as §1, §2

[2] = tested on: rats having the lesioned nigral dopaminergic nerve cells; experiment: Methamphetamine-induced rotational movement after 6-hydroxydopamine lesion and fetal dopamine cell transplantation; format: in vivo, female Wistar rats
Description: Nigral dopaminergic nerve cells at the left side of the brain of 4-week old female Wistar rats (body weight 100 g) were lesioned by injecting a very small quantity of 6-hydroxydopamine. […] Upon administration of methamphethamine (5 mg/kg, i.p.) to the rats having the lesioned nigral dopaminergic nerve cells, they began rotational movement toward the lesioned side.
After two weeks from the destruction by the administration of the drug, portions of the truncus corporis callosi containing dopamine cells (i. e., substantia nigra and the tagmentum at the abdomen side) were cut from the brain of a fetal rat of 14 to 17 days of age, cut finely, and treated with trypsin. Then, the extracted tissues were incubated at 37°C for 30 minutes, and the tissues were subjected to pipetting to form a suspension. Five microliters of the suspension was transplanted each into two sites of the caudate nucleus of the lesioned side (10 microliters in total, about 10⁵ cells).
Each of the compounds (I) in a dose of 100 mg/kg (i.p.) was administered every day over two weeks from the day of transplantation. The rotational movements induced by administration of methamphetamine were examined 2 weeks and 1 week before, and 2 weeks and 4 weeks after, the transplantation and the administration of the drug. The number of rotational movements within one minute was counted at intervals of 10 minutes after the administration of methamphetamine, and the total number of rotational movements counted six times was averaged to find a mean number of the rotational movements.

[3] = tested on: rats with crushed sciatic nerves; experiment: Curative effect on rats with crushed sciatic nerves; format: in vivo, male Wistar rats; settings: i.p. once a day, Compound 118 30 mg/kg, Mecobalamin 0.5 mg/kg, mean ± S.E.; for Rate of recovery in muscle weight (%): soleus muscle, crushed side/normal side
Description: The curing effect of the compound (I) of the invention was tested on rats having crushed sciatic nerves as a model of peripheral nervous disorder using (1) a change in the action of the hind paw with the crushed sciatic nerves and (2) a change in the weight of the muscle as an index of the course of degeneration and regeneration of peripheral nerves.
In the experiment, male Wistar rats (6 weeks old), seven per group, were used. The sciatic nerves were crushed by a method similar to the method of Yamatsu et al. (see Kiyomi Yamatsu, Takenori Kaneko, Akifumi Kitahara and Isao Ohkawa, Journal of Japanese Pharmacological Society, 72, 259-268 (1976) and the method of Hasegawa et al. (see Kazuo Hasegawa, Naoji Mikuni and Yutaka Sakai, Journal of Japanese Pharmacological Society, 74 721-734 (1978). Specifically, under anesthesia with pentobarbital (40 mg/kg, i.p.), the left side sciatic nerve was exposed at the femur and that site of the exposed sciatic nerve which was 5 mm to the center from the branched part between the N. tibialis and the N. suralis was crushed using a modified artery, klomme, having a width of 2 mm and a gap of 0.1 mm. After the operation, the rats were assigned to the test groups at random.
Compound No. 118 was selected as the compound (I) of the invention and intraperitoneally administered to the rats once a day from the day of operation to the 22nd day. A group to which mecobalamin (made by Gedeon Richter Ltd.) was administered and a group to which 0.9 % saline was administered were used as controls. The following items were measured with the lapse of time (on the lst, 4th, 7th, 10th, 14th, 17th, 21st, and 23rd days after the crushing of the sciatic nerves).
By a method similar to the method of Hasegawa [Hasegawa, K., Experientia, 34, 750-751 (1978)], the distance between the first and fifth digits of the hind paw was measured.
The ratio of the measured distance to the normal distance was calculated and expressed in percentage (%).
It is known that the removal of a nerve or its disorder causes atrophy of the muscle which is under its control, and the atrophy is gradually cured by re-control by the nerve. For this reason, a change in the weight of the muscle, which is quantitative, was selected as an index. Twenty-three days after the operation, the soleus muscles of both sides of paws were extracted under anesthesia with pentobarbital, and their weights were measured. The ratio of the weight of the soleus muscle on the crushed side to that of normal side was calculated and expressed in percentage (%).

[4] = po, p.o., read-out: Estimated LD₅₀ (mg/kg, p.o.)
[5] = ip, i.p., read-out: Estimated LD₅₀ (mg/kg, i.p.)

## CC(C)Nc1ncc2c(n1)N(C)C(=O)C2.Cl [Compound 102, 2-iso-Propylamino-5,6-dihydro-7-methyl-6-oxo(7H)pyrrolo[2,3-d]pyrimidine hydrochloride]
[1]; 10th day after resumption
  running time: 2.1 ± 0.2 s
  Number of mice which ran to the safety area within 5 seconds: 6/6
[1]; 11th day after resumption
  running time: 3.0 ± 0.6 s
  Number of mice which ran to the safety area within 5 seconds: 6/6
Acute toxicity; [4]
  LD50 at 24 h: > 1000 mg/kg
mouse; Dose 1000 mg/kg
  Number of dead animals/number of animals tested: 0/5

## CC(C)Nc1ncc2c(n1)N(C)C(=O)C2.O=C(O)/C=C\C(=O)O [Compound 104, 2-iso-Propylamino-5,6-dihydro-7-methyl-6-oxo(7H)pyrrolo[2,3-d]pyrimidine maleate]
[2]; 2W after transplantation, 100 mg/kg (i.p.) every day over two weeks, maleate, 100 mg/kg
  Number of rotational movements of rats and average values thereof (mean ±S.D.): 2.0±3.2 and 3.1±3.8
[2]; -1W (before transplantation and drug administration, baseline), maleate
  Number of rotational movements of rats and average values thereof (mean ±S.D.): 10.8±3.8 and 10.4±5.2
[2]; -2W (before transplantation and drug administration, baseline), maleate
  Number of rotational movements of rats and average values thereof (mean ±S.D.): 12.3±3.7 and 10.1±6.1

## CN(C)c1ncc2c(n1)N(C)C(=O)C2 [Compound 108]
Acute toxicity; [4]
  LD50 at 24 h: > 1000 mg/kg
mouse; Dose 1000 mg/kg
  Number of dead animals/number of animals tested: 2/5

## CN1C(=O)Cc2cnc(N3CCCC3)nc21 [Compound 112]
Acute toxicity; [4]
  LD50 at 24 h: > 1000 mg/kg
mouse; Dose 1000 mg/kg
  Number of dead animals/number of animals tested: 0/5

## CN1C(=O)Cc2cnc(N3CCCCC3)nc21 [Compound 118]
[3]; 21st day
  Rate of recovery of the interdigit distance (%): 79.8±2.5 %
[3]; 23rd day
  Rate of recovery of the interdigit distance (%): 87.9±3.3 %
  Rate of recovery in muscle weight (%): 59.6±2.8 %
Acute toxicity; [5]
  LD50 at 24 h: 500 to 1000 mg/kg
Acute toxicity; [4]
  LD50 at 24 h: > 1000 mg/kg
mouse; Dose 1000 mg/kg
  Number of dead animals/number of animals tested: 0/5
[2]; 2W after transplantation, 100 mg/kg (i.p.) every day over two weeks
  Number of rotational movements of rats and average values thereof (mean ±S.D.): 1.9±3.2
[2]; -1W (before transplantation and drug administration, baseline)
  Number of rotational movements of rats and average values thereof (mean ±S.D.): 13.9±7.4 and 10.8±4.9
[2]; -2W (before transplantation and drug administration, baseline)
  Number of rotational movements of rats and average values thereof (mean ±S.D.): 9.1±5.6
[2]; column headed 3W, footnote: * Data at 2 W, 100 mg/kg (i.p.) every day over two weeks
  Number of rotational movements of rats and average values thereof (mean ±S.D.): *5.5±7.2

## CN1C(=O)Cc2cnc(N3CCOCC3)nc21 [Compound 122]
Acute toxicity; [4]
  LD50 at 24 h: > 1000 mg/kg
mouse; Dose 1000 mg/kg
  Number of dead animals/number of animals tested: 1/5

## CN1C(=O)Cc2cnc(N3CCSCC3)nc21 [Compound 126]
Acute toxicity; [4]
  LD50 at 24 h: > 1000 mg/kg
mouse; Dose 1000 mg/kg
  Number of dead animals/number of animals tested: 0/5

## CCN(CC)C(=O)N1CCN(c2ncc3c(n2)N(C)C(=O)C3)CC1 [Compound 132, 2-Diethylaminocarbonylpiperazino-5,6-dihydro-7-methyl-oxo(7H)pyrrolo[2,3-d]pyrimidine]
Acute toxicity; [4]
  LD50 at 24 h: > 1000 mg/kg
mouse; Dose 1000 mg/kg
  Number of dead animals/number of animals tested: 1/5

## CN1CCN(c2ncc3c(n2)N(C)C(=O)C3)CC1 [Compound 138]
Acute toxicity; [5]
  LD50 at 24 h: 250 to 500 mg/kg
Acute toxicity; [4]
  LD50 at 24 h: > 1000 mg/kg
mouse; Dose 1000 mg/kg
  Number of dead animals/number of animals tested: 0/5

## CC1CCN(c2ncc3c(n2)N(C)C(=O)C3)CC1 [Compound 175]
Acute toxicity; [5]
  LD50 at 24 h: 500 to 1000 mg/kg

## CN1Cc2nc(N3CCCC3)ncc2C1=O [Compound 216]
Acute toxicity; [4]
  LD50 at 24 h: > 550 mg/kg
mouse; Dose 550 mg/kg
  Number of dead animals/number of animals tested: 0/5

## CN1Cc2nc(N3CCCCC3)ncc2C1=O [Compound 218]
Acute toxicity; [4]
  LD50 at 24 h: > 550 mg/kg
mouse; Dose 550 mg/kg
  Number of dead animals/number of animals tested: 0/5

## C/C1=C2/[N-][C@H]([C@H](CC(N)=O)[C@@]2(C)CCC(=O)NC[C@@H](C)OP(=O)([O-])O[C@H]2[C@@H](O)[C@@H](n3cnc4cc(C)c(C)cc43)O[C@@H]2CO)[C@]2(C)N=C(/C(C)=C3N=C(/C=C4N=C1[C@@H](CCC(N)=O)C\4(C)C)[C@@H](CCC(N)=O)[C@]\3(C)CC(N)=O)[C@@H](CCC(N)=O)[C@]2(C)CC(N)=O.[CH3-].[Co+3] [Mecobalamin, reference compound]
[3]; 21st day
  Rate of recovery of the interdigit distance (%): 79.1±2.6 %
[3]; 23rd day
  Rate of recovery of the interdigit distance (%): 88.3±4.0 %
  Rate of recovery in muscle weight (%): 55.0±3.5%
